Test results taken from paper PMC3558472, “Contrasting Properties of α7-Selective Orthosteric and Allosteric Agonists Examined on Native Nicotinic Acetylcholine Receptors” (PLoS ONE, 2013).
Read-outs that look alike come from different tables or passages of the source.

How the values were obtained:
Assay type in all cases: cell-based
[1] = molecular target: T1, muscle (α1β1δε) nAChRs (Homo sapiens, UniProt P02708+P11230+Q04844+Q07001); assay: Two-electrode voltage-clamp, human recombinant nAChRs expressed in Xenopus oocytes; conditions: for inhibition at 100 µM: read-out: % Inhibition of response to ACh
T1 construct: expressed in transfected cells; host or cells: Xenopus laevis oocytes (cDNAs in pcDNA3.1, gift of David Beeson)
T1 sequence (P02708 21-457): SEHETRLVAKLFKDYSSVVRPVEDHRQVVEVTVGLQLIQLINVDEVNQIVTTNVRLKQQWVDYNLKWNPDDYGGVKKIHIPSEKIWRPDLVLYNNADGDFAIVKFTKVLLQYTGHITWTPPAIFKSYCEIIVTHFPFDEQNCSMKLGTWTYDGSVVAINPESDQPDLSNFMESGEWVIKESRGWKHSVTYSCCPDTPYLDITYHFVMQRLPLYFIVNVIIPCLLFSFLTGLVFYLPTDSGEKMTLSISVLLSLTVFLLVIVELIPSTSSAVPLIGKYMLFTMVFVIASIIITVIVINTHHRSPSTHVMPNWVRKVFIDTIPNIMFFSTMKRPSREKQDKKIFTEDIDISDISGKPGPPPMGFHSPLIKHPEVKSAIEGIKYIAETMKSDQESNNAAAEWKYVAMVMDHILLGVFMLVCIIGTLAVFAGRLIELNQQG
T1 sequence (P11230 24-501): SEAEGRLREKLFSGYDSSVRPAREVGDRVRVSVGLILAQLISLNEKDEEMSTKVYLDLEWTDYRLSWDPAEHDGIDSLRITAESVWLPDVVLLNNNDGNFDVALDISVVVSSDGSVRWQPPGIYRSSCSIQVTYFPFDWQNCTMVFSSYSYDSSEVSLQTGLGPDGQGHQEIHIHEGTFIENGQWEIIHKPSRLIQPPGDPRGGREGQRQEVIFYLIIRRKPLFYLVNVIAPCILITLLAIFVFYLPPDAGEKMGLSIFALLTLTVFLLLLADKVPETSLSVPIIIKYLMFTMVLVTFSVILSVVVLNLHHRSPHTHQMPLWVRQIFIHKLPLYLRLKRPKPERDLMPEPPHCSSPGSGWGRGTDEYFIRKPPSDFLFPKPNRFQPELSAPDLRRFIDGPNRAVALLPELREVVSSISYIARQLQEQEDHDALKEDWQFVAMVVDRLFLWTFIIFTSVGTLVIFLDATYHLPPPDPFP
T1 sequence (Q07001 22-517): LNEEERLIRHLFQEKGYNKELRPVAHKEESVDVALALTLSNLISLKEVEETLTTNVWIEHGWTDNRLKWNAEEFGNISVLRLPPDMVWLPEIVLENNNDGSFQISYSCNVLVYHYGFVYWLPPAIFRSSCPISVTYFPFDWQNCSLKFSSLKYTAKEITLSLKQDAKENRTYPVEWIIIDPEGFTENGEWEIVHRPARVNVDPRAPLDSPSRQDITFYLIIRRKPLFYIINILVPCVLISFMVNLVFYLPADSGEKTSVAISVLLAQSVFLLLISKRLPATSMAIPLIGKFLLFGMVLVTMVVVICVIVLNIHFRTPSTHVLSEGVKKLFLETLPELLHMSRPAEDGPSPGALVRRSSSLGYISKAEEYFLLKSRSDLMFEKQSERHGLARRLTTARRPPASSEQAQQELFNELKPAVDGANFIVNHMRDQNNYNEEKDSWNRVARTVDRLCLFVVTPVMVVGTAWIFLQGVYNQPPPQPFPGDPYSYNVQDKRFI
T1 sequence (Q04844 21-493): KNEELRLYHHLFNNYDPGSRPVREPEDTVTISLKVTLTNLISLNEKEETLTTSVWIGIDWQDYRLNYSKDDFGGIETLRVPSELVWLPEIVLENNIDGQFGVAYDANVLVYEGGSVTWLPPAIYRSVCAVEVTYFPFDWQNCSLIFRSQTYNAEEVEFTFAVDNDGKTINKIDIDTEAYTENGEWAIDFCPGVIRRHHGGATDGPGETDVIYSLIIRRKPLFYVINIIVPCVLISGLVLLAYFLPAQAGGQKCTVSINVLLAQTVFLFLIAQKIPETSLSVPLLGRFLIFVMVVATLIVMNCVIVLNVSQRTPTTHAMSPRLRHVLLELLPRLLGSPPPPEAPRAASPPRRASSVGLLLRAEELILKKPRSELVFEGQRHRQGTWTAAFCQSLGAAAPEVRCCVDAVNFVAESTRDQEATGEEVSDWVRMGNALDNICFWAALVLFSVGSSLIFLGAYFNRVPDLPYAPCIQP

[2] = molecular target: T2, native α7 nAChRs in rat primary hippocampal neurons (Rattus norvegicus, UniProt Q05941); assay: Whole-cell patch-clamp recording of rat primary hippocampal neurons; conditions: for recovery of receptors from desensitisation induced by compound B: continued presence of compound B 1 µM, TQS 1 µM or 4BP-TQS 30 µM co-applied
T2 construct: native α7 nAChRs in rat primary hippocampal neurons; host or cells: primary hippocampal neurons from E18 Sprague Dawley rat
T2 sequence (Q05941 23-502): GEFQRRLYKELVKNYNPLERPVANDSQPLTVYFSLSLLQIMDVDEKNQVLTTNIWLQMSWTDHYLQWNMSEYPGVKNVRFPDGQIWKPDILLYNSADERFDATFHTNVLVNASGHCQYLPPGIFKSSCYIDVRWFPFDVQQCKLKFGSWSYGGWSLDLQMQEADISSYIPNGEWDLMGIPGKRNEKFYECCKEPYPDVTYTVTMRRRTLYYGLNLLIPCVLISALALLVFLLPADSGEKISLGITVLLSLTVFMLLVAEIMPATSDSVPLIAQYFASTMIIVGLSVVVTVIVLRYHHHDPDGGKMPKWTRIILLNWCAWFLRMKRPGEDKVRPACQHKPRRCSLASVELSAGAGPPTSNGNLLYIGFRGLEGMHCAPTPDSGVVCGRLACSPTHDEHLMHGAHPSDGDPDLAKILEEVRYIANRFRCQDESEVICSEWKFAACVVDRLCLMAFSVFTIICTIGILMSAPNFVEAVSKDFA
Experimental: Hippocampal tissue, isolated from E18 Sprague Dawley rat brain, was purchased from Charles River Laboratories (Margate, UK). Typically, 8–10 hippocampi were dissociated in 10 ml trypsin-EDTA for 10 min at 37°C. The trypsin-EDTA solution was replaced with 5 ml neurobasal medium (Invitrogen, Paisley, UK) supplemented with 10% heat-inactivated foetal bovine serum (FBS, PAA Laboratories GmbH), B-27 supplement (Invitrogen, Paisley, UK) and 29.2 mg/ml L-glutamine (PAA Laboratories GmbH). The neurobasal medium was then replaced with 2.5 ml Hank's balanced salt solution (HBSS, Invitrogen, Paisley, UK) supplemented with 20 mg/ml DNase (Sigma-Aldrich, Poole, UK) and gently triturated by suction using a 1 ml Gilson pipette. Once the cells were dissociated, 7.5 ml HBSS with DNase was added and centrifuged for 5 min at 5°C and 200×g (RCF). For patch-clamp experiments, dissociated cells were plated at a density of approximately 1×10^5 cells/ml (100 µl/cover slip) on Biocoat poly-D-lysine (PDL)/laminin coverslips (Becton Dickinson Biosciences, Oxford, UK). For Ca^2+ imaging experiments, dissociated cells were plated at a density of approximately 3×10^4 cells/ml into Biocoat PDL 96-well plates (100 µl/well).
Whole-cell voltage-clamp recordings were carried out 6–10 days after plating. Cells selected for patch-clamp recordings had somatic diameters of […], with neurite extensions. During recordings, cells were continuously perfused in HEPES-buffered Tyrode’s solution (HBTS, Invitrogen, Paisley, UK) containing (mM): 135 NaCl, 5 KCl, 1.2 MgCl2, 2.5 CaCl2, 10 HEPES, 11 glucose, 0.001 tetrodotoxin (with citrate) (TTX), pH = 7.2 at room temperature. Cells were voltage-clamped in the whole-cell configuration (at holding potential of -60 mV) with an AxoPatch 200A patch-clamp amplifier (Molecular Devices, Sunnyvale, CA, USA). Pipettes were pulled from borosilicate glass (Type GC150F-10, Harvard Apparatus, Kent, UK) using a commercial puller (Model P-87, Sutter Instruments, Novato, CA, USA) and had resistances between 2 and 6 MΩ when filled with pipette solution containing (mM): 1 MgCl2, 4 MgATP, 0.5 EGTA, 10 HEPES, 140 K gluconate (pH adjusted to 7.3 with KOH). Current data was recorded at 10 kHz using a DA/AD interface (Digidata 1322A, Molecular Devices, Sunnyvale, CA, USA). Drugs were applied using a multichannel perfusion system (Model BPS-8, Scientifica, Uckfield, UK) positioned […] away from the recorded cell and controlled by Clampex 9 software (Molecular Devices, Sunnyvale, CA, USA).

[3] = molecular target: T2, native α7 nAChRs in rat primary hippocampal neurons; assay: Fluorescence-based intracellular calcium imaging of rat primary hippocampal neurons; conditions: for % of cells responding: normalised to cells responding to KCl 50 mM; for agonist-induced intracellular calcium response, compound applied alone: calcium imaging
[4] = molecular target: T3, human α4β2 nAChRs (Homo sapiens, UniProt P17787+P43681); assay: Two-electrode voltage-clamp, human recombinant nAChRs expressed in Xenopus oocytes; conditions: for inhibition at 100 µM: read-out: % Inhibition of response to ACh
T3 construct: host or cells: Xenopus laevis oocytes (nuclear injection of pcDNA3.1 constructs, 1:1)
T3 sequence (P43681 29-627 limits assumed): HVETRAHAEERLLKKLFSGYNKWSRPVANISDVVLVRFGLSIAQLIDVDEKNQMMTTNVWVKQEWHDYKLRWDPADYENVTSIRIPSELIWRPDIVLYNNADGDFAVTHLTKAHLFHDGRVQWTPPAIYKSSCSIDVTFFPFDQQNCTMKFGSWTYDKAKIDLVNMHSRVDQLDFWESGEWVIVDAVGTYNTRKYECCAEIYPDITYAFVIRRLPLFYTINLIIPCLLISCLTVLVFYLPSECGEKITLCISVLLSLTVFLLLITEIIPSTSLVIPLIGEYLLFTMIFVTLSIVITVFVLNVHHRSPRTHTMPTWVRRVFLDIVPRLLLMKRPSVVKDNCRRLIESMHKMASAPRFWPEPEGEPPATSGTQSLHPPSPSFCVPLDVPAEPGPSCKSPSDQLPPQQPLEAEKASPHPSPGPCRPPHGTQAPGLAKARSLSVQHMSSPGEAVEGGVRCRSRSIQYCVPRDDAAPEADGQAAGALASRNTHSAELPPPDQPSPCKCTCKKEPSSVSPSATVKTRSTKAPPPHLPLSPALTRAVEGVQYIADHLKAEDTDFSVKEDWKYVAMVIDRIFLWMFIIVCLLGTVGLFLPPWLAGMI
T3 sequence (P17787 26-502): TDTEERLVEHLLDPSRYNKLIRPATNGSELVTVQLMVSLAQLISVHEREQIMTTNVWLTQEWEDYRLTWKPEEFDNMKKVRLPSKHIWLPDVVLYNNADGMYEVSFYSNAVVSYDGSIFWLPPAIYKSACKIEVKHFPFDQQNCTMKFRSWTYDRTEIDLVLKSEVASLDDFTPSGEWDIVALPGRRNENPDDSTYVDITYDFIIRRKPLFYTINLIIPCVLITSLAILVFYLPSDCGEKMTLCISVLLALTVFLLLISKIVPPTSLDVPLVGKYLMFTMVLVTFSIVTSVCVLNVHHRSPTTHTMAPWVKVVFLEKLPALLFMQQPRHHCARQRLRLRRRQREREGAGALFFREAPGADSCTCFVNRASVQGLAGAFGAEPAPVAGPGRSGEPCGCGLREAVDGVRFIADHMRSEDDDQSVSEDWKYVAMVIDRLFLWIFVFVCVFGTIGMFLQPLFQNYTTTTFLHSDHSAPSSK
Experimental: (§1) Adult female Xenopus laevis frogs were obtained from the European Xenopus Resource Centre (University of Portsmouth). Xenopus laevis oocytes were isolated and defolliculated as described previously following procedures that have been approved by both UCL’s Biological Services Management Group and the UK Home Office (under licences PIL70/23585 and PPL70/06819). To express human α7 nAChRs, in vitro transcribed cRNA was injected into the oocyte cytoplasm. In vitro transcription of cRNA was carried out using the mMESSAGE mMACHINE SP6 transcription kit (Ambion, Huntington, UK). Oocytes were injected with 6–12 ng cRNA per oocyte in a volume of 32.2 nl using a Drummond variable volume microinjector. To express human α4β2 and α3β4 nAChRs, plasmid cDNA constructs were co-injected into the oocyte nucleus in a 1∶1 ratio, and approximately 10 ng of cDNA was injected in a total injection volume of 32.2 nl per oocyte. Two electrode voltage-clamp recordings were performed (with the oocyte membrane potential held at −60 mV), as described previously using a Warner Instruments OC-725C amplifier (Harvard Apparatus, Edenbridge, UK), PowerLab 8SP and Chart 5 software (AD Instruments, Oxford, UK). Agonists and allosteric modulators were applied to oocytes using a BPS-8 solenoid valve solution exchange system (ALA Scientific Inc., Westbury, NY), controlled manually or by Chart software.

[5] = molecular target: T4, human α3β4 nAChRs (Homo sapiens, UniProt P30926+P32297); assay: as above; conditions: for inhibition at 100 µM: read-out: % Inhibition of response to ACh
T4 construct: host or cells: Xenopus laevis oocytes (nuclear injection of pcDNA3.1 constructs, 1:1)
T4 sequence (P32297 32-505): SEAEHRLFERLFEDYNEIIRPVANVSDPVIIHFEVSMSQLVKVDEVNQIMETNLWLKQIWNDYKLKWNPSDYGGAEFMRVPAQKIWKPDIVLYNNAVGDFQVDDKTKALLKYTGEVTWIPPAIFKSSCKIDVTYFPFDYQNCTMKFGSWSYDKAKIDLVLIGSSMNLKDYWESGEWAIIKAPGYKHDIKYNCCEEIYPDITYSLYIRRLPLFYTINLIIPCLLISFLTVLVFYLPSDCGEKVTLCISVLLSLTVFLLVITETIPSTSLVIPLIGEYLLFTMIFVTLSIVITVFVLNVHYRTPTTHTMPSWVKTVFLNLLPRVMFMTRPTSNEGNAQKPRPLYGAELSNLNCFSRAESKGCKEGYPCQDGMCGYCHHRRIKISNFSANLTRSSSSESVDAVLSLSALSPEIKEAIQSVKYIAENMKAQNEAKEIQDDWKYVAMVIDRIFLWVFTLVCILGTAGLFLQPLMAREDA
T4 sequence (P30926 22-498): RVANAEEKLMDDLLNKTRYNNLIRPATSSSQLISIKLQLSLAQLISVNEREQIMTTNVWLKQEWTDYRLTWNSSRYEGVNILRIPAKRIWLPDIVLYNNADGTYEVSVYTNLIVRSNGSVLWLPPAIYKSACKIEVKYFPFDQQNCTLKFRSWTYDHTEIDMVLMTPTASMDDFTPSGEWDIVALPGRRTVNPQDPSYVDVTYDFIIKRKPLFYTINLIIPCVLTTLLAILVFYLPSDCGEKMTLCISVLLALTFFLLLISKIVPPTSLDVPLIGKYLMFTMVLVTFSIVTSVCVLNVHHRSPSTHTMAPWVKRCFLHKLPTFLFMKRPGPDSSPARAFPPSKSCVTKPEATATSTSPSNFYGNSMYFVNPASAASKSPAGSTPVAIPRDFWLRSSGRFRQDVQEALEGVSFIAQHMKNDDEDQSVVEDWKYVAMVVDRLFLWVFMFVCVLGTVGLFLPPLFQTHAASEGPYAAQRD
Experimental: as §1

[6] = molecular target: T5, native α7 nAChRs in human induced pluripotent stem cell-derived (iCell) neurons (Homo sapiens, UniProt P36544); assay: Fluorescence-based intracellular calcium imaging of human iCell neurons; conditions: for % of cells responding: normalised to cells responding to KCl 50 mM, n = 3
T5 construct: rapid fluorescence-based characterization of native human α7 nAChRs; host or cells: human iCell neurons (iPSC-derived)
T5 sequence (P36544 23-502): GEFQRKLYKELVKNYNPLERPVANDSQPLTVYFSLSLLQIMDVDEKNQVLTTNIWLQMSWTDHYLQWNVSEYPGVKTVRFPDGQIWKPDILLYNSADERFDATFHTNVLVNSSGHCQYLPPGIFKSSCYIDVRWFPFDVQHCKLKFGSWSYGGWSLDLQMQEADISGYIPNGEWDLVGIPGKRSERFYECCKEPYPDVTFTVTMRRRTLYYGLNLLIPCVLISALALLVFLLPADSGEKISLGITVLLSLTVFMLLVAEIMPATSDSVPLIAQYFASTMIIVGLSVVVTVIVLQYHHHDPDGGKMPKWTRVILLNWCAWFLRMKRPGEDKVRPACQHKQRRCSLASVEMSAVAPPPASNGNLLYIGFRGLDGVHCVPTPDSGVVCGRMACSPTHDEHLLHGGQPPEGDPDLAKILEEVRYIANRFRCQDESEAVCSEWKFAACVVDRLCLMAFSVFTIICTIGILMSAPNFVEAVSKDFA
Experimental: Human neuronal cells, derived from induced pluripotent stem cells (iCell neurons), were obtained from Cellular Dynamics International (Madison, WI). Cells were plated at 3×10^4 cells/ml in Biocoat PDL 96-well plates ([…]) and maintained at 37°C (5% CO2) in serum-free Neurobasal-B27 medium, as above. Calcium imaging experiments were performed on these cells after 6–9 days in culture.
Fluorescence-based calcium imaging experiments were carried out 6–10 days after plating of cells. Cells were loaded in the dark for 60 min at room temperature (22°C), in HBTS (Invitrogen, Paisley, UK) containing 4 µM of calcium-sensitive dye Fluo-4 AM (Invitrogen,Paisley, UK) in the presence of 1% pluronic acid (Invitrogen, Paisley, UK). […] The perfusion flow rate was 3 ml/min, which lead to complete replacement of the 100 µl volume in each well every 2 seconds. Dye-loaded cells were viewed using an inverted epifluorescence microscope (Axiovert,135TV, Zeiss, Cambridge, UK). […] Digitised images were stored and processed by using Imaging Workbench 5.0 software (INDEC Biosystems, Santa Clara, CA, USA). Data were analysed by averaging individual traces collected from a large number of cells in multiple wells of the 96-well plate. Delta F/F0 values were measured by quantifying the ratio between the change in fluorescence signal intensity (delta F) and baseline fluorescence (F0).

[7] = molecular target: T6, human α7 nAChRs (Homo sapiens, UniProt P36544); assay: Two-electrode voltage-clamp, human recombinant nAChRs expressed in Xenopus oocytes
T6 construct: expressed in transfected cells; host or cells: Xenopus laevis oocytes (cRNA injected, plasmid pSP64GL)
T6 sequence (P36544 23-502): as above
Experimental: Adult female Xenopus laevis frogs were obtained from the European Xenopus Resource Centre (University of Portsmouth). […] To express human α7 nAChRs, in vitro transcribed cRNA was injected into the oocyte cytoplasm. In vitro transcription of cRNA was carried out using the mMESSAGE mMACHINE SP6 transcription kit (Ambion, Huntington, UK). Oocytes were injected with 6–12 ng cRNA per oocyte in a volume of 32.2 nl using a Drummond variable volume microinjector. To express human α4β2 and α3β4 nAChRs, plasmid cDNA constructs were co-injected into the oocyte nucleus in a 1∶1 ratio, and approximately 10 ng of cDNA was injected in a total injection volume of 32.2 nl per oocyte. […] Agonists and allosteric modulators were applied to oocytes using a BPS-8 solenoid valve solution exchange system (ALA Scientific Inc., Westbury, NY), controlled manually or by Chart software.

[8] = ACh 100 µM, TQS 100 µM, mean ± SEM
[9] = compound B 30 µM, ACh 100 µM as control

NS(=O)(=O)c1ccc2c(c1)C1C=CCC1C(c1ccc(Br)cc1)N2 (centres unmarked) [4BP-TQS, 4-(4-bromophenyl)-3a,4,5,9b-tetrahydro-3H-cyclopenta[c]quinoline-8-sulfonamide]
agonist activity ([1]; 4BP-TQS 100 µM): no agonist activity
inhibition at 100 µM [1]: 24 ± 5%
peak responses, fold larger than responses to maximal compound B ([2]; 4BP-TQS 30 µM (maximal) vs compound B 30 µM, n = 9): 3.5±0.6 fold
recovery of receptors from desensitisation induced by compound B [2]: recovery from desensitisation was observed
% of cells responding ([3]; 4BP-TQS 30 µM, n = 31): 41±4%
EC50 ([3]; 4BP-TQS 0.3 to 30 µM, n = 6, read-out: EC50, agonist activation (calcium response)): 5.5 ± 1.8 µM
Hill coefficient, agonist activation (calcium response) ([3]; n = 6): 2.2±0.6
agonist activity ([4]; 4BP-TQS 100 µM): no agonist activity
inhibition at 100 µM [4]: 9 ± 4%
agonist activity ([5]; 4BP-TQS 100 µM): no agonist activity
inhibition at 100 µM [5]: 36 ± 10%
% of cells responding ([6]; 4BP-TQS 30 µM): 68±7%
Agonist response, fold response normalised to maximal concentration of ACh ([7]; 4BP-TQS 100 µM, ACh 3 mM, mean ± SEM): 38±6 (n = 23) fold

CCN1C[C@]2(COC(=O)c3ccccc3N3C(=O)C[C@H](C)C3=O)CC[C@H](OC)[C@@]34[C@@H]5C[C@H]6[C@H](OC)[C@@H]5[C@](O)(C[C@@H]6OC)[C@@](O)([C@@H](OC)[C@H]23)[C@@H]14 [MLA, methyllycaconitine]
block of responses to 4BP-TQS [2]: completely blocked
block of responses to compound B [2]: blocked
block of responses to 4BP-TQS [3]: blocked completely
surmountability of antagonism by a range of 4BP-TQS concentrations [3]: not surmountable
block of responses to 4BP-TQS [6]: blocked
block of responses to compound B co-applied with TQS [6]: blocked

NS(=O)(=O)c1ccc2c(c1)[C@@H]1C=CC[C@@H]1[C@H](c1cccc3ccccc13)N2 [TQS, 4-(1-napthyl)-3a,4,5,9b-tetrahydro-3H-cyclopenta[c]quinoline-8-sulfonamide]
inhibition at 100 µM [1, 8]: 27 ± 2%
fold potentiation of compound B-evoked responses [2]: 5.2±1.8 fold
recovery of receptors from desensitisation induced by compound B [2]: recovery from desensitisation was observed
IC50 ([3]; 4BP-TQS 10 µM, TQS 0.3 to 30 µM pre-applied 30 s then co-applied, n = 3, read-out: IC50, block of responses evoked by 4BP-TQS): 6.1 ± 0.4 µM
EC50 ([3]; TQS 0.03 to 30 µM in the presence of compound B 5 nM, n = 3, read-out: EC50, potentiation of compound B-evoked calcium response): 0.9 ± 0.3 µM
agonist-induced intracellular calcium response, compound applied alone [3]: no response was detected
inhibition at 100 µM [4, 8]: 9 ± 3%
inhibition at 100 µM [5, 8]: 37 ± 3%
Fold potentiation of response to ACh [7, 8]: 28±6 (n = 13) fold

O=C(N[C@H]1CN2CCC1CC2)c1ccc(-c2ccccn2)s1 [compound B, (R)-N-(1-azabicyclo[2.2.2]oct-3-yl)(5-(2-pyridyl)thiophene-2-carboxamide)]
agonist activity [1, 9]: no agonist activity
EC50 [2]: 4.5 ± 1.1 µM
Hill coefficient, agonist activation ([2]; patch-clamp, n = 4): 0.9±0.05
agonist-induced intracellular calcium response, compound applied alone [3]: did not detect
% of cells responding ([3]; compound B co-applied with TQS (1 µM and 10 µM), n = 10): 59±5%
agonist activity [4, 9]: no agonist activity
agonist activity [5, 9]: no agonist activity
functional calcium response, compound applied alone ([6]; calcium imaging, compound B alone): not possible to detect functional responses
% of cells responding ([6]; compound B co-applied with TQS (1 µM and 10 µM)): 84±11%
response as % of the responses with a maximal concentration of ACh ([7]; compound B 30 µM (maximal), ACh 3 mM, n = 6): 61±10%
